Data set [1] can be described thus: detoxification of alpha, beta-unsaturated carbonyl compounds. Particulars: compared with L-carnosine.
The nature of data set [2]: distribution in the rat after oral administration. The class given is in vivo.
A short description of data set [3]: pharmacokinetic studies on laboratory animals monitoring plasma carnosine content by liquid chromatography-ESI triple quadrupole mass spectrometry. It is filed as in vivo.

Consider one compound from patent publication US20090306165A1, “DIPEPTIDE COMPOUNDS CONTAINING D-HISTIDINE” (priority 2006, published 2009).

For the compound `NCCC(=O)N[C@H](Cc1c[nH]cn1)C(=O)O` [D-carnosine, β-alanyl-D-histidine], the “detoxification of the alpha, beta-unsaturated carbonyl compounds” value in data set [1] is “performs the same detoxification”. The “distribution in the lung” value in data set [2] is “distributed in the lung”. For the same compound, the gastrointestinal absorption entry in data set [3] was “poor gastrointestinal absorption”.
